Laboratory results reported in patent US7595401B2, “Therapeutic compounds and their use in cancer” (Myriad Pharmaceuticals, Inc., priority 2006, dated 2009).
pIC50: −log10 of the molar value.

Tested on: purified human Hsp90
Assay: Binding Assay: fluorescence polarization with BODIPY-labeled geldanamycin
Conditions: 5 μM compound, BODIPY-GM 10 nM, Hsp90 30 nM
How it was run: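 Fluorescence polarization competition with BODIPY-geldanamycin (10 nM final) and human Hsp90 (30 nM final) in HEPES-KOH pH 7.3 buffer with molybdate, NP-40, DTT; 2% DMSO, overnight at room temperature. Read 485/530 nm; percent inhibition from mP normalized to DMSO controls, fluorescent-compound points excluded.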

Compared with `N#CC1CCN(CCn2c(Sc3cc4c(cc3Br)OCO4)nc3ncnc(N)c32)CC1` [Example 576, 1-(2-{6-Amino-8-[(6-bromo-1,3-benzodioxol-5-yl)thio]-7 H-purin-7-yl}ethyl)piperidine-4 - carbonitrile], `N=C(N)N1CCC(CCn2cnc(N)c3nc(Sc4cc5c(cc4Br)OCO5)nc2-3)CC1` [Example 617, 4-(2-{6-Amino-8-[(6-bromo-1,3-benzodioxol-5-yl)thio]-3 H-purin-3-yl}ethyl)piperidine-1-carboximidamide] is higher in “% Inhibition at 5 μM Compound Concentration” value (“% Inhibition” for short): 31% for the first, 83.00% for the second.

Compared with `CC(C)(C)OC(=O)N1CCC(Cn2cnc(N)c3nc(Sc4cc5c(cc4Br)OCO5)nc2-3)CC1` [Example 640, tert-Butyl 4-({6-amino-8-[(6-bromo-1,3-benzodioxol-5-yl)thio]-3 H-purin-3-yl}methyl)piperidine-1-carboxylate], `CC(C)(C)OC(=O)N1CCCC(Cn2cnc(N)c3nc(Sc4cc5c(cc4Br)OCO5)nc2-3)C1` (stereo not drawn) [Example 642, tert-Butyl 3-({6-amino-8-[(6-bromo-1,3-benzodioxol-5-yl)thio]-3 H-purin-3-yl}methyl)piperidine-1-carboxylate] is lower in “% Inhibition” value: 19.00% for the first, 15.00% for the second.

`COc1cc(CCn2cnc(N)c3nc(Sc4cc(OC)ccc4OC)nc2-3)cc(OC)c1` [Example 194, 3-[2-(3,5-dimethoxy-phenyl)-ethyl]-8-(2,5-dimethoxy-phenylsulfanyl)-3H-purin-6-ylamine] and `CCOc1cc(CCn2cnc(N)c3nc(Sc4cc(OC)ccc4OC)nc2-3)ccc1OC` [Example 112, 8-(2,5-dimethoxy-phenylsulfanyl)-3-[2-(3-ethoxy-4-methoxy-phenyl)-ethyl]-3H-purin-6-ylamine] are the same in “% Inhibition” value: 0% for the first, 0% for the second.

First: COc1ccc(OC)c(Sc2nc3c(N)ncn(CCc4cccc5ccccc45)c-3n2)c1 [Example 68, 8-(2,5-dimethoxy-phenylsulfanyl)-3-(2-naphthalen-1-yl-ethyl)-3H-purin-6-ylamine]
Second: COc1ccc(OC)c(Sc2nc3c(N)ncn(CCC4CCN(C=O)CC4)c-3n2)c1 [Example 359, 4-(2-{6-Amino-8-[(2,5-dimethoxyphenyl)thio]-3H-purin-3-yl}ethyl)piperidine-1-carbaldehyde]
The “% Inhibition” value of the first is lower: 0% for the first, 3% for the second.

Going from `Nc1ncn(CC(c2ccccc2)C2CCCC2)c2nc(Sc3cc4c(cc3Br)OCO4)nc1-2` (stereo not drawn) [Example 102, 8-(6-bromo-benzo[1,3]dioxol-5-ylsulfanyl)-3-(2-cyclopentyl-2-phenyl-ethyl)-3H-purin-6-ylamine] to `Nc1ncn(CCc2cccc(C(F)(F)F)c2)c2nc(Sc3cc4c(cc3Br)OCO4)nc1-2` [Example 166, 8-(6-Bromo-benzo[1,3]dioxol-5-ylsulfanyl)-3-[2-(3-trifluoromethyl-phenyl)-ethyl]-3H-purin-6-ylamine], the “% Inhibition” value falls from 39% to 0%.

Compared with `CN(C)c1ccc(CCn2cnc(N)c3nc(Sc4cc5c(cc4Br)OCO5)nc2-3)cc1` [Example 188, 8-(6-bromo-benzo[1,3]dioxol-5-ylsulfanyl)-3-[2-(4-dimethylamino-phenyl)-ethyl]-3H-purin-6-ylamine], `CC(C)(C)OC(=O)N1CCCC1CCn1cnc(N)c2nc(Sc3cc4c(cc3Br)OCO4)nc1-2` (stereo not drawn) [Example 412, tert-Butyl 2-(2-{6-amino-8-[(6-bromo-1,3-benzodioxol-5-yl)thio]-3H-purin-3-yl}ethyl)pyrrolidine-1-carboxylate] is lower in “% Inhibition” value: 21% for the first, 0% for the second.

Going from `CCOC(=O)CNC(=O)N1CCC(CCn2cnc(N)c3nc(Sc4cc5c(cc4Br)OCO5)nc2-3)CC1` [Example 443, Ethyl N-{[4-(2-{6-amino-8-[(6-bromo-1,3-benzodioxol-5-yl)thio]-3H-purin-3-yl}ethyl)piperidin-1-yl]carbonyl}glycinate] to `COc1cc(Br)c(Sc2nc3c(N)ncn(CCC4CCN(C(C)=O)CC4)c-3n2)cc1OC` [Example 566, 3-[2-(1-Acetylpiperidin-4-yl)ethyl]-8-[(2-bromo-4,5-dimethoxyphenyl)thio]-3 H-purin-6-amine], the “% Inhibition” value falls from 36% to 1.00%.

In the case of `Nc1ncnc2c1nc(Sc1cc3c(cc1Br)OCO3)n2CC(O)c1ccc(Cl)cc1Cl` (stereo not drawn) [Example 177, 2-[6-Amino-8-(6-bromo-benzo[1,3]dioxol-5-ylsulfanyl)-purin-9-yl]-1-(2,4-dichloro-phenyl)-ethanol], the “% Inhibition” value was 0%.

Same assay, conditions: BODIPY-GM 10 nM, Hsp90 30 nM

`CC(C)(C)OC(=O)NC(CCn1cnc(N)c2nc(Sc3cc4c(cc3Br)OCO4)nc1-2)C1CCCCC1` (stereo not drawn) [Example 671, tert-Butyl(3-{6-amino-8-[(6-bromo-1,3-benzodioxol-5-yl)thio]-3H-purin-3-yl}-1-cyclohexylpropyl)carbamate] and `Nc1ncn(CCN2CCCCC2)c2nc(Sc3cc4c(cc3Br)OCO4)nc1-2` [Example 492, 8-[(6-Bromo-1,3-benzodioxol-5-yl)thio]-3-(2-piperidin-1-ylethyl)-3 H-purin-6-amine] are within 0.2 log units of each other in pIC50: 6.00 for the first, 6.05 for the second.

`COc1cc(Sc2nc3c(N)nc(F)nc3n2CCc2ccccc2Cl)cc(OC)c1OC` [Example 237, 9-[2-(2-Chlorophenyl)ethyl]-2-fluoro-8-[(3,4,5-trimethoxyphenyl)thio]-9H-purin-6-amine] and `COc1ccc(OC)c(Sc2nc3c(N)ncnc3n2CCc2cc(OC)c(OC)c(OC)c2)c1` [Example 89, 8-(2,5-Dimethoxy-phenylsulfanyl)-9-[2-(3,4,5-trimethoxy-phenyl)-ethyl]-9H-purin-6-ylamine] cannot be ordered by pIC50: less than 4.60 for the first, less than 5.00 for the second.

Compared with `Nc1ncnc2c1nc(Sc1nc3cccc(Cl)c3s1)n2CCC1CCN(C=O)CC1` [Example 661, 4-(2-{6-Amino-8-[(7-chloro-1,3-benzothiazol-2-yl)thio]-9H-purin-9yl}-ethyl)-piperidin-1-carbaldehyde], `COc1c(F)cc(Sc2nc3c(N)ncnc3n2CCC2CCN(C(C)=O)CC2)cc1Cl` [Example 569, 9-[2-(1-Acetylpiperidin-4-yl)ethyl]-8-[(3-chloro-5-fluoro-4-methoxyphenyl)thio]-9 H-purin-6-amine] is lower in pIC50: 7.22 for the first, less than 5.30 for the second. The first is the more potent here.

Going from `COc1ccc(OC)c(Sc2nc3c(N)ncnc3n2CCc2ccc(F)cc2Cl)c1` [Example 139, 9-[2-(2-chloro-4-fluoro-phenyl)-ethyl]-8-(2,5-dimethoxy-phenylsulfanyl)-9H-purin-6-ylamine] to `COc1ccc(OC)c(Sc2nc3c(N)ncnc3n2CCc2ccccc2Br)c1` [Example 141, 9-[2-(2-Bromo-phenyl)-ethyl]-8-(2,5-dimethoxy-phenylsulfanyl)-9H-purin-6-ylamine], the pIC50 rises from 7.05 to 7.40 (0.35 log units). The second is the more potent here.

Compared with `Nc1ncnc2c1nc(Sc1cc3c(cc1Br)OCO3)n2CC[C@@H]1CCCNC1` [Example 474, 8-[(6-Bromo-1,3-benzodioxol-5-yl)thio]-9-{2-[(3S)-piperidin-3-yl]ethyl}-9 H-purin-6-amine], `CS(=O)(=O)N1CCC(CCn2c(Sc3cc4c(cc3Br)OCO4)nc3c(N)ncnc32)CC1` [Example 378, 8-[(6-Bromo-1,3-benzodioxol-5-yl)thio]-9-{2-[1-(methylsulfonyl)piperidin-4-yl]ethyl}-9H-purin-6-amine] is 0.23 log units lower in pIC50: 6.85 for the first, 6.62 for the second. The first is the more potent here.

Compared with `COc1ccc(OC)c(Sc2nc3c(N)ncnc3n2CCn2cnc3ccccc3c2=O)c1` [Example 271, 3-(2-{6-Amino-8-[(2,5-dimethoxyphenyl)thio]-9H-purin-9-yl}ethyl)quinazolin-4(3 H)-one], `COc1ccc(OC)c(Sc2nc3c(N)ncnc3n2CCc2cccc(I)c2)c1` [Example 137, 8-(2,5-Dimethoxy-phenylsulfanyl)-9-[2-(3-iodo-phenyl)-ethyl]-9H-purin-6-ylamine] is higher in pIC50: less than 4.60 for the first, 6.68 for the second. The second is the more potent here.

Compared with `CC1(C)COC(CCn2c(Sc3cc4c(cc3Br)OCO4)nc3c(N)ncnc32)CN1` (stereo not drawn) [Example 601, 8-[(6-Bromo-1,3-benzodioxol-5-yl)thio]-9-[2-(5,5-dimethylmorpholin-2-yl)ethyl]-9 H-purin-6-amine], `C[C@@H](N)C(=O)N1CCC(CCn2c(Sc3cc4c(cc3Br)OCO4)nc3c(N)ncnc32)CC1` [Example 746, 9-(2-{1-[(2R)-2-Aminopropanoyl]piperidin-4-yl}ethyl)-8-[(6-bromo-1,3-benzodioxol-5-yl)thio]-9H-purin-6-amine] is higher in pIC50: less than 5.10 for the first, 6.62 for the second. The second is the more potent here.

`CCOc1ccc(OCC)c(Sc2nc3c(N)ncnc3n2CCc2ccccc2)c1` [Example 189, 8-(2,5-Diethoxy-phenylsulfanyl)-9-phenethyl-9H-purin-6-ylamine] and `Nc1ncnc2c1nc(Sc1cc(OC(F)(F)F)ccc1Cl)n2CCc1ccccc1` [Example 228, 8-{[2-Chloro-5-(trifluoromethoxy)phenyl]thio}-9-(2-phenylethyl)-9H-purin-6-amine] cannot be ordered by pIC50: less than 5.10 for the first, less than 5.10 for the second.

Going from `CC(C)C[C@H](N)C(=O)N1CCC(CCn2c(Sc3cc4c(cc3Br)OCO4)nc3c(N)ncnc32)CC1` [Example 744, 9-(2-{1-[(2S)-2-Amino-4-methylpentanoyl]piperidin-4-yl}ethyl)-8-[(6-bromo-1,3-benzodioxol-5-yl)thio]-9H-purin-6-amine] to `Nc1ncnc2c1nc(Sc1cc3c(cc1Br)OCO3)n2CCc1ccc(O)cc1` [Example 300, 4-(2-{6-Amino-8-[(6-bromo-1,3-benzodioxol-5-yl)thio]-9H-purin-9-yl}ethyl)phenol], the pIC50 falls from 7.17 to 6.40 (0.77 log units). The first is the more potent here.

First: Nc1ncnc2c1nc(Sc1cc3c(cc1Br)OCO3)n2CCc1ccccc1F [Example 147, 8-(6-Bromo-1,3-benzodioxol-5-ylsulfanyl)-9-[2-(2-fluoro-phenyl)-ethyl]-9H-purin-6-ylamine]
Second: Nc1ncnc2c1nc(Sc1cc3c(cc1Br)OCO3)n2CCn1cnc2ccccc2c1=O [Example 269, 3-(2-{6-Amino-8-[(6-bromo-1,3-benzodioxol-5-yl)thio]-9H-purin-9-yl}ethyl)quinazolin-4(3 H)-one]
The pIC50 of the first is 2.10 log units higher: 7.36 for the first, 5.26 for the second. The first is the more potent here.

`Nc1ncn(CCN2C(=O)CCCC2=O)c2nc(Sc3cc4c(cc3Br)OCO4)nc1-2` [Example 497, 1-(2-{6-amino-8-[(6-bromo-1,3-benzodioxol-5-yl)thio]-3H-purin-3-yl}ethyl)piperidine-2,6-dione] was tested, and the pIC50 was 4.60.
